In ChEMBL document CHEMBL4742394, “3-(aryl or heteroaryl) methyleneindolin-2-one derivatives as inhibitors of cancer stem cell pathway kinases for the treatment of cancer” (2019):
pIC50: −log10 of the molar value. One block for each compound: values may come before it. Active and inactive are the calls of the source. The rule behind the calls is not given here.

Experiments:
FaDu [1] = experiment: Growth inhibition of human FaDu cells incubated for 72 hrs by cell-titer Glo luminescence assay; type: functional, cell-based
Homo sapiens = organism: Homo sapiens; experiment: Inhibition of ERK phosphorylation (unknown origin) incubated for 6 hrs by Western blot analysis based cell based assay
[2] = target: Small ribosomal subunit protein eS6 (Homo sapiens) (UniProt P62753); experiment: Inhibition of RPS6 phosphorylation (unknown origin) incubated for 6 hrs by Western blot analysis based cell based assay
FaDu [3] = experiment: Growth inhibition of human FaDu cancer stem cells incubated for 72 hrs by cell-titer Glo luminescence assay; type: functional, cell-based
[4] = target: Small ribosomal subunit protein eS6 (Homo sapiens) (UniProt P62753); experiment: Inhibition of RPS6 phosphorylation in human HeLa cells assessed as Ser235/236 phosphorylation level at 5 uM incubated for 6 hrs; type: cell-based; design: scale not given: the % may be the effect or the level left
[5] = target: Small ribosomal subunit protein eS6 (Homo sapiens) (UniProt P62753); experiment: Inhibition of RPS6 phosphorylation in human HeLa cells assessed as Ser240/244 phosphorylation level at 5 uM incubated for 6 hrs; type: cell-based; design: scale not given: the % may be the effect or the level left

Compound: Cc1ccc(-c2nc(-c3ccc4c(c3)/C(=C/c3[nH]c(C)c(C(=O)N5CCN(C)CC5)c3C)C(=O)N4)cs2)cc1
- pIC50 (FaDu [1]): 4.63

Compound: CCOC(=O)CCc1ccc(-c2nc(-c3ccc4c(c3)/C(=C/c3[nH]c(C)c(C(=O)NCCN(CC)CC)c3C)C(=O)N4)cs2)cc1
- inhibition (Homo sapiens): Active

- inhibition [2]: Active
Compound: CCNC(=O)c1c(C)[nH]c(/C=C2\C(=O)Nc3ccc(-c4csc(-c5ccccc5)n4)cc32)c1C
- inhibition (Homo sapiens): Active

Compound: Cc1cc(C)c(/C=C2\C(=O)Nc3ccc(-c4ccc(C=O)cc4)cc32)[nH]1
- inhibition (Homo sapiens): Active

Compound: COc1cccnc1-c1ccc2c(c1)/C(=C/c1[nH]c(C)cc1C)C(=O)N2
- inhibition (Homo sapiens): Active
- pIC50 (FaDu [3]): 5.60

- Activity [4]: 4%
- Activity [5]: 26%
Compound: CCN(CC)CCNC(=O)c1c(C)[nH]c(/C=C2\C(=O)Nc3ccc(-c4n[nH]c5ccccc45)cc32)c1C

- Activity [4]: 76%
- Activity [5]: 76%
Compound: Cc1cc(C)c(/C=C2\C(=O)Nc3ccc(-c4csc(C5CCNCC5)n4)cc32)[nH]1
